Experimental data as given in ChEMBL document CHEMBL1926648, “Synthesis and biological activity of dihydroimidazole and 3,4-dihydrobenzo[4,5]imidazo[1,2-a][1,3,5]triazins” (2012).

Legend:
Format in all cases: functional
Conditions in all cases: read-out: IZ
Bacillus cereus [1] = assay: Antibacterial activity against Bacillus cereus at 50000 ppm after 24 hrs by agar diffusion method
Bacillus subtilis [2] = assay: Antibacterial activity against Bacillus subtilis at 50000 ppm after 24 hrs by agar diffusion method
Escherichia coli [3] = assay: Antibacterial activity against Escherichia coli at 10000 ppm after 24 hrs by agar diffusion method
Escherichia coli [4] = assay: Antibacterial activity against Escherichia coli at 30000 ppm after 24 hrs by agar diffusion method
Escherichia coli [5] = assay: Antibacterial activity against Escherichia coli at 50000 ppm after 24 hrs by agar diffusion method
Micrococcus luteus [6] = assay: Antibacterial activity against Micrococcus luteus at 30000 ppm after 24 hrs by agar diffusion method
Micrococcus luteus [7] = assay: Antibacterial activity against Micrococcus luteus at 50000 ppm after 24 hrs by agar diffusion method
Staphylococcus aureus [8] = assay: Antibacterial activity against Staphylococcus aureus at 10000 ppm after 24 hrs by agar diffusion method
Staphylococcus aureus [9] = assay: Antibacterial activity against Staphylococcus aureus at 30000 ppm after 24 hrs by agar diffusion method
Staphylococcus aureus [10] = assay: Antibacterial activity against Staphylococcus aureus at 50000 ppm after 24 hrs by agar diffusion method
Pseudomonas aeruginosa [11] = assay: Antibacterial activity against Pseudomonas aeruginosa at 10000 ppm after 24 hrs by agar diffusion method
Pseudomonas aeruginosa [12] = assay: Antibacterial activity against Pseudomonas aeruginosa at 30000 ppm after 24 hrs by agar diffusion method
Pseudomonas aeruginosa [13] = assay: Antibacterial activity against Pseudomonas aeruginosa at 50000 ppm after 24 hrs by agar diffusion method
Kocuria rosea [14] = assay: Antibacterial activity against Micrococcus roseus at 10000 ppm after 24 hrs by agar diffusion method
Kocuria rosea [15] = assay: Antibacterial activity against Micrococcus roseus at 30000 ppm after 24 hrs by agar diffusion method
Kocuria rosea [16] = assay: Antibacterial activity against Micrococcus roseus at 50000 ppm after 24 hrs by agar diffusion method
Bacillus cereus [17] = assay: Antibacterial activity against Bacillus cereus at 10000 ppm after 24 hrs by agar diffusion method
Bacillus cereus [18] = assay: Antibacterial activity against Bacillus cereus at 30000 ppm after 24 hrs by agar diffusion method
Bacillus subtilis [19] = assay: Antibacterial activity against Bacillus subtilis at 10000 ppm after 24 hrs by agar diffusion method
Bacillus subtilis [20] = assay: Antibacterial activity against Bacillus subtilis at 30000 ppm after 24 hrs by agar diffusion method
Micrococcus luteus [21] = assay: Antibacterial activity against Micrococcus luteus at 10000 ppm after 24 hrs by agar diffusion method

| Structure (SMILES) | zone of inhibition at 50000 ppm (Bacillus cereus [1]) [mm] | zone of inhibition at 50000 ppm (Bacillus subtilis [2]) [mm] | zone of inhibition at 10000 ppm (Escherichia coli [3]) [mm] | zone of inhibition at 30000 ppm (Escherichia coli [4]) [mm] | zone of inhibition at 50000 ppm (Escherichia coli [5]) [mm] | zone of inhibition at 30000 ppm (Micrococcus luteus [6]) [mm] | zone of inhibition at 50000 ppm (Micrococcus luteus [7]) [mm] | zone of inhibition at 10000 ppm (Staphylococcus aureus [8]) [mm] | zone of inhibition at 30000 ppm (Staphylococcus aureus [9]) [mm] | zone of inhibition at 50000 ppm (Staphylococcus aureus [10]) [mm] | zone of inhibition at 10000 ppm (Pseudomonas aeruginosa [11]) [mm] | zone of inhibition at 30000 ppm (Pseudomonas aeruginosa [12]) [mm] | zone of inhibition at 50000 ppm (Pseudomonas aeruginosa [13]) [mm] | zone of inhibition at 10000 ppm (Kocuria rosea [14]) [mm] | zone of inhibition at 30000 ppm (Kocuria rosea [15]) [mm] | zone of inhibition at 50000 ppm (Kocuria rosea [16]) [mm] | zone of inhibition at 10000 ppm (Bacillus cereus [17]) [mm] | zone of inhibition at 30000 ppm (Bacillus cereus [18]) [mm] | zone of inhibition at 10000 ppm (Bacillus subtilis [19]) [mm] | zone of inhibition at 30000 ppm (Bacillus subtilis [20]) [mm] | other results |
| --- | --- | --- | --- | --- | --- | --- | --- | --- | --- | --- | --- | --- | --- | --- | --- | --- | --- | --- | --- | --- | --- |
| Nc1c[nH]/c(=N/c2nc3ccccc3[nH]2)[nH]1 | 4 | 6 | 3 | 8 | 14 | 4 | 8 | 4 | 9 | 15 | 4 | 7 | 9 | 6 | 8 | 12 |  |  |  |  |  |
| N#Cc1[nH]/c(=N/c2nc3ccccc3[nH]2)[nH]c1N | 14 | 16 | 8 | 13 | 19 | 7 | 9 | 3 | 7 | 7 | 6 | 8 | 9 | 4 | 7 | 9 | 6 | 10 | 8 | 11 | zone of inhibition at 10000 ppm (Micrococcus luteus [21]): 4 mm |
| NC1=Nc2nc3ccccc3n2C2(NC(=O)CS2)N1 (stereo not given) | 11 | 16 |  | 5 | 8 | 3 | 7 | 3 | 5 | 8 | 5 | 8 | 11 | 4 | 7 | 10 | 6 | 8 | 9 | 13 |  |
| CC1=NN(c2ccccc2)C2(C1)NC(N)=Nc1nc3ccccc3n12 (stereo not given) | 4 | 9 | 8 | 13 | 16 | 9 | 11 |  |  | 4 |  | 4 | 6 |  | 3 | 8 |  |  |  | 3 | zone of inhibition at 10000 ppm (Micrococcus luteus [21]): 5 mm |
| NC1=Nc2nc3ccccc3n2C2(NC(=O)CC(=O)N2)N1 | 7 | 14 | 8 | 11 | 15 | 4 | 6 |  | 5 | 8 | 2 | 6 | 9 | 1 | 4 | 7 | 1 | 4 | 6 | 10 |  |
| CC1(C)[C@@H]2CC[C@@]1(C)C1(C2)NC(N)=Nc2nc3ccccc3n21 (stereo not given in full) | 4 | 6 | 4 | 9 | 12 |  |  |  | 3 | 8 |  |  |  |  | 2 | 5 |  |  | 3 | 5 |  |
